The term MIC denotes the smallest concentration in the dilution series that meets the test's criterion for growth inhibition.

Values after ≈ are worked out from the molar mass of the structure shown. Structures can show the parent of a compound that is named as a salt. Where two headings read alike, the source gives them in different places.

The test system of data set [1] is P. aeruginosa PAO1. In words: Intrinsic MIC assay (CLSI broth microdilution). The conditions noted are these: for MIC: Pseudomonas aeruginosa, read-out: Antibiotic Activity Against P. aeruginosa: Intrinsic MIC. Type of data set: cell-based, Pseudomonas aeruginosa. On the procedure: (§1) MIC assays were conducted in accordance with Clinical and Laboratory Standards Institute (CLSI) guidelines for broth microdilution. A 96-well plate containing cation-adjusted Mueller-Hinton (CAMH broth with 2-fold serial dilution of compounds was inoculated with log-phase bacterial at 5×10^5 CFU/mL. The final volume in each well was 100 μL. Each compound was tested in duplicate. The microtiter plates were incubated in an aerobic environment for 18 hours at 37° C. Then the bacterial growth was tested by reading the plate with a VersaMax plate reader (Molecular Devices, Inc.) at 600 nm. The MIC was defined as the lowest compound concentration that inhibited 90% of bacteria growth.
(§2) Pseudomonas aeruginosa PAO1
On the technique in general: In broth dilution the organism is exposed to a series of concentrations in liquid medium.

Data set [2] concerns P. aeruginosa PAO1. Kind of data set: MIC assay in the presence of a bacterial efflux pump inhibitor (EPI). Type of data set: cell-based, Pseudomonas aeruginosa. The conditions noted are these: with 12.5 ug/ml of EPI (2S,4R)-4-(ammoniomethyl)-2-((6-(4-fluorophenyl)-1H-indole-2-carboxamido)methyl)pyrrolidin-1-ium, MIC90. The procedure: (§3) The ability of a compound to produce an antibiotic effect can be determined using a method as described in Example 21. Data for representative compounds used in combination with the efflux pump inhibitor [(2S,4R)-4-(ammoniomethyl)-2-((6-(4-fluorophenyl)-1H-indole-2-carboxamido)methyl)pyrrolidin-1-ium] is shown in Table 1.
as §1, §2
(§4) The EPI assay for the purposes of these studies represents a MIC assay in which the MIC of the antibiotic against the bacteria is tested in the presence of an experimental efflux pump inhibitor (EPI). The highest concentration of the EPI present in the assay typically is ½ of the intrinsic MIC of the compound. If the intrinsic MIC of the EPI is greater than 100 μg/mL, the EPI assay was tested with 50 μg/mL. Using serial dilutions of the EPI, its enhancement of antibiotic activity was then evaluated. The relative EPI activity was decided by comparing the MIC of the antibiotic in the presence of the EPI compound with the intrinsic MIC of the antibiotic alone. For comparative purposes, we generally used EPIs at concentration of 12.5 and 6.25 μg/ml against varying concentration of our test antibiotic.

The test system of data set [3] is E. coli 25922. In words: Intrinsic MIC assay (CLSI broth microdilution). The conditions noted are these: for MIC: read-out: Antibiotic Activity Against E. coli: Intrinsic MIC. Type of data set: cell-based, Escherichia coli. The procedure: as §1
(§5) Escherichia coli ATCC 25922

In data set [4] the test system is E. coli 25922. Kind of data set: MIC assay in the presence of a bacterial efflux pump inhibitor (EPI). Type of data set: cell-based, Escherichia coli. The settings on record: with 12.5 ug/ml of EPI (2S,4R)-4-(ammoniomethyl)-2-((6-(4-fluorophenyl)-1H-indole-2-carboxamido)methyl)pyrrolidin-1-ium, MIC90. The procedure:
as §3, §1, §5, §4

The next data set deals with MreB. The conditions noted are these: P. aeruginosa strains with defective efflux transporters; cited from earlier work.
Data set [5] deals with T1, MexAB-OprM efflux transporter (Pseudomonas aeruginosa, UniProt P52002).
T1 construct: MexAB-OprM efflux transporter present in wild-type P. aeruginosa; endogenous in cells; host or cells: wild-type P. aeruginosa
The conditions noted are these: wild-type P. aeruginosa; cited from earlier work.

Where [6] appears, read: 18 h, P. aeruginosa PAO1, without EPI, MIC90.
The mark [7] stands for this setting: Escherichia coli, 18 h, E. coli 25922, without EPI, MIC90.

T1 sequence (Q51487 18-485): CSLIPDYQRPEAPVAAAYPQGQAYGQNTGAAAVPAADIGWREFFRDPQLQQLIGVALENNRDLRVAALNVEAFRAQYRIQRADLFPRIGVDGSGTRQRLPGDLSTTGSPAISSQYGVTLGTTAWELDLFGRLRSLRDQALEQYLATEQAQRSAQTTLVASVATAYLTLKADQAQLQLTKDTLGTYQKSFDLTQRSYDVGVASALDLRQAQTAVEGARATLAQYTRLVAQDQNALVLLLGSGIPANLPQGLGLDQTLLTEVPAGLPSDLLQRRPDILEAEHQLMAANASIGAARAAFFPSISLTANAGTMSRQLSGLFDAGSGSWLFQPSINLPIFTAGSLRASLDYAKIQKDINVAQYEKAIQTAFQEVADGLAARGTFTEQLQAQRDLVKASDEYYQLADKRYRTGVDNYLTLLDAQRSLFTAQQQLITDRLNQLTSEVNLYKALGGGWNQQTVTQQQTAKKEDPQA
T1 sequence (P52477 24-383, further chain): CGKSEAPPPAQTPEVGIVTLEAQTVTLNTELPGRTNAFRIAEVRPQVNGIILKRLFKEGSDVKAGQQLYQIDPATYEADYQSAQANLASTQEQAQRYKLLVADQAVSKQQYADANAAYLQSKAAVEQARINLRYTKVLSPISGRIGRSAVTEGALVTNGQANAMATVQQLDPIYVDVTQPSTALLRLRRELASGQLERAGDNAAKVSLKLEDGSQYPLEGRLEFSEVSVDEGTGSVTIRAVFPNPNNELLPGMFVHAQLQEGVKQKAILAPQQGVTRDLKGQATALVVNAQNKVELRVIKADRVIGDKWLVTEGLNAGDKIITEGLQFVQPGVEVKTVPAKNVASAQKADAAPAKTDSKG
T1 sequence (P52002 whole entry): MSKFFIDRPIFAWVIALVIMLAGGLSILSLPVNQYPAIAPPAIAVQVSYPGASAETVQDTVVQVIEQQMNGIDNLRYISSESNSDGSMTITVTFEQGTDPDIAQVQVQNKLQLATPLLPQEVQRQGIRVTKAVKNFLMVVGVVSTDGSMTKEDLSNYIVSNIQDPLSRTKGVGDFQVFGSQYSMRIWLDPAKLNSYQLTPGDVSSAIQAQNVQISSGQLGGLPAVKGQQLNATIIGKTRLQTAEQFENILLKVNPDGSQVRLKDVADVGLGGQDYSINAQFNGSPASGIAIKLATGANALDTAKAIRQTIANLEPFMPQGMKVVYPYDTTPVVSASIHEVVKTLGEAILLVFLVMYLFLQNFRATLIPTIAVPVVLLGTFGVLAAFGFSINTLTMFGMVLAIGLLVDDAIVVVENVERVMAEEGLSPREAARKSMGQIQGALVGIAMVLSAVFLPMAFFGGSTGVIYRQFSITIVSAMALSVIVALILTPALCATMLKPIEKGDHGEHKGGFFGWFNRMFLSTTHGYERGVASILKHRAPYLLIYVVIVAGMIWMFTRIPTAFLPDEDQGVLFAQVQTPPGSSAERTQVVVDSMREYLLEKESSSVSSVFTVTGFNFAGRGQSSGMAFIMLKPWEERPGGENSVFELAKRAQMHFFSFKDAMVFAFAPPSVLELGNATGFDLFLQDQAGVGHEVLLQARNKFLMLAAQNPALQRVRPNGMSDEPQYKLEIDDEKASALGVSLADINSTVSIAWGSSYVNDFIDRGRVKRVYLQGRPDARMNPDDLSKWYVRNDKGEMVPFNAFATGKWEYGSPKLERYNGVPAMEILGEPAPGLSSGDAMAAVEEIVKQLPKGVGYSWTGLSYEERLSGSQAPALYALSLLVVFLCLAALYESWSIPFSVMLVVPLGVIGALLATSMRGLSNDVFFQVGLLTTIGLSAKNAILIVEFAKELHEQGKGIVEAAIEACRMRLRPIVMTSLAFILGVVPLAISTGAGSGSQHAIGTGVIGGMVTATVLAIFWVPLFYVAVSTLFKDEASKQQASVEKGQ

Consider `Cl.N=C(N)SCc1ccc(Cl)c(Cl)c1` [Example 1, 3,4-Dichlorobenzyl Carbamimidothioate Hydrobromide], for which the MIC in the data set on P. aeruginosa PAO1 [1] (setting [6]) is more than 256 µg/mL; with E. coli 25922 [3] (setting [7]) it was 64 µg/mL. In the data set on P. aeruginosa PAO1 [2], the “Antibiotic Activity Against P. aeruginosa: MIC with EPI (Enhancement)” value was found to be 0.5 µg/mL. Also, the “Antibiotic Activity Against E. coli: MIC with EPI (Enhancement)” value (“Antibiotic Activity Against E. coli: MIC” below) in the data set with E. coli 25922 [4] was determined as 4 µg/mL.
The like results for `Br.N=C(N)SCc1ccc(Cl)cc1Cl` [Example 2, 2,4-Dichlorobenzyl Carbamimidothioate Hydrobromide] were, in that order, more than 256 µg/mL, more than 256 µg/mL, 1.0 µg/mL and more than 256 µg/mL.
The like results for `Br.CC(C)(C)c1ccc(CSC(=N)N)cc1` [Example 3, 4-(t-Butyl)Benzyl Carbamimidothioate Hydrobromide] were, in that order, more than 256 µg/mL, 256 µg/mL, 256 µg/mL and 256 µg/mL.
Consider `N=C(N)SCCc1ccc(Cl)c(Cl)c1` [Example 4, 3,4-dichlorophenethyl carbamimidothioate], for which the MIC in the data set with P. aeruginosa PAO1 [1] (setting [6]) was more than 256 µg/mL; with E. coli 25922 [3] (setting [7]) it was 256 µg/mL (≈ 1030 µM). The “Antibiotic Activity Against P. aeruginosa: MIC with EPI (Enhancement)” value with P. aeruginosa PAO1 [2] was more than 256 µg/mL. In addition, the “Antibiotic Activity Against E. coli: MIC” value in the data set on E. coli 25922 [4] was 256 µg/mL.
As to `Br.CC(SC(=N)N)c1ccc(Cl)c(Cl)c1` (stereo not shown) [Example 5, 1-(3,4-Dichlorophenyl)ethyl Carbamimidothioate Hydrobromide], the MIC in the data set on P. aeruginosa PAO1 [1] (setting [6]) was more than 256 µg/mL; in the data set with E. coli 25922 [3] (setting [7]) it was 256 µg/mL. Also, in the data set on P. aeruginosa PAO1 [2], the “Antibiotic Activity Against P. aeruginosa: MIC with EPI (Enhancement)” value stood at 4.0 µg/mL. In addition, the “Antibiotic Activity Against E. coli: MIC” value in the data set with E. coli 25922 [4] stood at 256 µg/mL.
Consider `CNC(=N)SCc1ccc(Cl)c(Cl)c1.Cl` [Example 6, 3,4-dichlorobenzyl Methylcarbamimidothioate Hydrobromide], for which the MIC with P. aeruginosa PAO1 [1] (setting [6]) and in the data set on E. coli 25922 [3] (setting [7]) was more than 256 µg/mL each time. For the same compound, the “Antibiotic Activity Against P. aeruginosa: MIC with EPI (Enhancement)” value in the data set on P. aeruginosa PAO1 [2] came to 4.0 µg/mL. In addition, the “Antibiotic Activity Against E. coli: MIC” value in the data set on E. coli 25922 [4] is more than 256 µg/mL.
`Br.N=C(N)SCc1ccc(Br)cc1` [Example 7, 4-Bromobenzyl Carbamimidothioate Hydrobromide]: the MIC in the data set with P. aeruginosa PAO1 [1] (setting [6]) and in the data set with E. coli 25922 [3] (setting [7]) was more than 256 µg/mL throughout. The “Antibiotic Activity Against P. aeruginosa: MIC with EPI (Enhancement)” value with P. aeruginosa PAO1 [2] worked out at 1.0 µg/mL. Moreover, the “Antibiotic Activity Against E. coli: MIC” value in the data set with E. coli 25922 [4] was more than 256 µg/mL.
On to `N=C(N)SCc1cccc(Br)c1` [Example 8, 3-bromobenzyl Carbamimidothioate Hydrobromide], for which the MIC was more than 256 µg/mL with P. aeruginosa PAO1 [1] (PAO1, 18 h) and more than 256 µg/mL in the data set with E. coli 25922 [3] (Escherichia coli, 25922, 18 h). In addition, the “Antibiotic Activity Against P. aeruginosa: MIC with EPI (Enhancement)” value in the data set on P. aeruginosa PAO1 [2] is more than 256 µg/mL. Further, the “Antibiotic Activity Against E. coli: MIC” value in the data set on E. coli 25922 [4] was more than 256 µg/mL.
In the case of `Br.N=C(N)SCc1ccc(-c2ccc(F)cc2)cc1` [Example 9, (4′-fluoro-[1,1′-biphenyl]-4-yl)methyl Carbamimidothioate Hydrobromide], the MIC is more than 256 µg/mL in the data set with P. aeruginosa PAO1 [1] (setting [6]) and 64 µg/mL with E. coli 25922 [3] (setting [7]). In addition, the “Antibiotic Activity Against P. aeruginosa: MIC with EPI (Enhancement)” value with P. aeruginosa PAO1 [2] was more than 256 µg/mL. In the data set with E. coli 25922 [4], the “Antibiotic Activity Against E. coli: MIC” value was determined as 64 µg/mL.
As to `N=C(N)SCc1cccc(-c2ccc(F)cc2)c1` [Example 10, (4′-fluoro-[1,1′-biphenyl]-3-yl)methyl Carbamimidothioate Hydrobromide], the figures for the MIC with P. aeruginosa PAO1 [1] (setting [6]) and with E. coli 25922 [3] (setting [7]) were more than 256 µg/mL and 64 µg/mL, respectively. In addition, in the data set with P. aeruginosa PAO1 [2], the “Antibiotic Activity Against P. aeruginosa: MIC with EPI (Enhancement)” value is more than 256 µg/mL. Further, the “Antibiotic Activity Against E. coli: MIC” value with E. coli 25922 [4] came out at 64 µg/mL.
Regarding `N=C(N)SCc1cccc2ccccc12` [Example 11, naphthalen-1-ylmethyl Carbamimidothioate Hydrobromide], the MIC in the data set on P. aeruginosa PAO1 [1] (setting [6]) and in the data set with E. coli 25922 [3] (setting [7]) was more than 256 µg/mL each time. In addition, in the data set on P. aeruginosa PAO1 [2], the “Antibiotic Activity Against P. aeruginosa: MIC with EPI (Enhancement)” value was more than 256 µg/mL. The “Antibiotic Activity Against E. coli: MIC” value with E. coli 25922 [4] is more than 256 µg/mL.
For `Cl.N=C(N)SCc1ccc2ccccc2c1` [Example 12, naphthalen-2-ylmethyl Carbamimidothioate Hydrobromide], the MIC with P. aeruginosa PAO1 [1] (setting [6]) and with E. coli 25922 [3] (setting [7]) was more than 256 µg/mL each time. Also, the “Antibiotic Activity Against P. aeruginosa: MIC with EPI (Enhancement)” value in the data set with P. aeruginosa PAO1 [2] was found to be 4 µg/mL. Moreover, the “Antibiotic Activity Against E. coli: MIC” value in the data set on E. coli 25922 [4] turned out to be 16 µg/mL.
For the compound `CN1CN=C(SCc2ccc3ccccc3c2)NC1` [Example 13, 3-methyl-6-((naphthalen-2-ylmethyl)thio)-1,2,3,4-tetrahydro-1,3,5-triazine], the MIC in the data set on P. aeruginosa PAO1 [1] (setting [6]) and in the data set on E. coli 25922 [3] (setting [7]) was more than 256 µg/mL throughout. The “Antibiotic Activity Against P. aeruginosa: MIC with EPI (Enhancement)” value in the data set with P. aeruginosa PAO1 [2] came to 16 µg/mL. The “Antibiotic Activity Against E. coli: MIC” value in the data set with E. coli 25922 [4] turned out to be 16 µg/mL.
On to `N=C(N)SCc1ccc(C(F)(F)F)nc1` [Example 14, (6-(trifluoromethyl)pyridin-3-yl)methyl Carbamimidothioate Hydrochloride], for which the MIC with P. aeruginosa PAO1 [1] (PAO1, 18 h) was more than 256 µg/mL; in the data set with E. coli 25922 [3] (Escherichia coli, 25922, 18 h) it was more than 256 µg/mL. The “Antibiotic Activity Against P. aeruginosa: MIC with EPI (Enhancement)” value in the data set on P. aeruginosa PAO1 [2] was more than 256 µg/mL. Moreover, in the data set with E. coli 25922 [4], the “Antibiotic Activity Against E. coli: MIC” value is more than 256 µg/mL.
As for `N=C(N)SCc1ccc2occc2c1` [Example 15, benzofuran-5-ylmethyl Carbamimidothioate Hydrobromide], the figures for the MIC with P. aeruginosa PAO1 [1] (setting [6]) and with E. coli 25922 [3] (setting [7]) were 16 µg/mL and more than 256 µg/mL, respectively. Also, in the data set on P. aeruginosa PAO1 [2], the “Antibiotic Activity Against P. aeruginosa: MIC with EPI (Enhancement)” value stood at 4 µg/mL. The “Antibiotic Activity Against E. coli: MIC” value in the data set on E. coli 25922 [4] was more than 256 µg/mL.
On the same counts, the results for `N=C(N)SCc1ccc2sccc2c1` [Example 16, Benzo[b]thiophen-5-ylmethyl Carbamimidothioate Hydrobromide] are more than 256 µg/mL, more than 256 µg/mL, 4 µg/mL and more than 256 µg/mL.
The like results for `CC(C)(C)OC(=O)n1ccc2cc(CSC(=N)N)ccc21` [Example 17, t-Butyl 5-((carbamimidoylthio)methyl)-1H-indole-1-carboxylate] were, in that order, more than 256 µg/mL, more than 128 µg/mL, more than 256 µg/mL and 128 µg/mL.
The like results for `N=C(N)SCc1ccc2ncccc2c1` [Example 18, quinolin-6-ylmethyl Carbamimidothioate Hydrobromide] were, in that order, more than 256 µg/mL, more than 256 µg/mL, more than 256 µg/mL and more than 256 µg/mL.
As for `Br.N=C(N)SCc1cccc2cccnc12` [Example 19, quinolin-8-ylmethyl Carbamimidothioate Hydrobromide], the MIC with P. aeruginosa PAO1 [1] (setting [6]) and in the data set with E. coli 25922 [3] (setting [7]) was more than 256 µg/mL in each case. Moreover, the “Antibiotic Activity Against P. aeruginosa: MIC with EPI (Enhancement)” value in the data set on P. aeruginosa PAO1 [2] is more than 256 µg/mL. Besides, the “Antibiotic Activity Against E. coli: MIC” value in the data set with E. coli 25922 [4] is more than 256 µg/mL.
With `N=C(N)SCc1ccc(Cl)c(Cl)c1` [Example A22, S-(3,4-Dichlorobenzyl)isothiourea], the MreB inhibition entry in the data set with MreB is reported as “effective MreB inhibitor”. Also, in data set [5], the efflux transporter substrate entry was “substrate for the MexAB-OprM efflux transporter”.
As to “Isoquinolin-5-ylmethyl Carbamimidothioate Hydrobromide [Example 20]”, the “Antibiotic Activity Against P. aeruginosa: Intrinsic MIC” value with P. aeruginosa PAO1 [1] (P. aeruginosa PAO1, without EPI, MIC90) is more than 256 μ/mL. Further, the “Antibiotic Activity Against P. aeruginosa: MIC with EPI (Enhancement)” value with P. aeruginosa PAO1 [2] was more than 256 µg/mL. Also, in the data set with E. coli 25922 [3] (E. coli 25922, without EPI, MIC90), the “Antibiotic Activity Against E. coli: Intrinsic MIC” value was more than 256 µg/mL. In the data set on E. coli 25922 [4], the “Antibiotic Activity Against E. coli: MIC” value is more than 256 µg/mL.
